According to ChEMBL document CHEMBL1201862, “PubChem BioAssay data set” (2004):
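Dose response: 5 concentrations. Exposure: 48 h. Format: 96-well plates. Endpoint: linear interpolation; highest concentration if not reached. GI50 marks 50% less growth.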 Calls of active or inactive are those of the source. Rule as the data show it: active = GI50 up to about 1.1 µM and inactive = higher.

Tests used:
Assay in all cases: growth of human tumour cells (NCI), 48 h
SR = test system: SR
DU-145 = test system: DU-145
U-251 = test system: U-251
OVCAR-4 = test system: OVCAR-4
SF-539 = test system: SF-539
RXF 393 = test system: RXF 393
UACC-257 = test system: UACC-257
SK-MEL-2 = test system: SK-MEL-2
SK-MEL-28 = test system: SK-MEL-28
SW-620 = test system: SW-620
IGROV-1 = test system: IGROV-1
HCT-116 = test system: HCT-116
UO-31 = test system: UO-31
OVCAR-8 = test system: OVCAR-8
SNB-19 = test system: SNB-19
SNB-75 = test system: SNB-75
HOP-62 = test system: HOP-62
T47D = test system: T47D
A498 = test system: A498
HOP-92 = test system: HOP-92

Measured: GI50

CCCCOC(=O)NC(Nc1cccc(C(F)(F)F)c1)(C(F)(F)F)C(F)(F)F
inactive: SR 23.1 µM | DU-145 > 100 µM | U-251 36.1 µM | OVCAR-4 99.8 µM | SF-539 73.6 µM | RXF 393 50.7 µM | UACC-257 84.9 µM | SK-MEL-2 35.5 µM | SK-MEL-28 > 100 µM | SW-620 64.3 µM | IGROV-1 49.5 µM | HCT-116 > 100 µM | UO-31 46.5 µM | OVCAR-8 57.4 µM | SNB-19 > 100 µM | SNB-75 33.6 µM | HOP-62 > 100 µM | T47D 13.5 µM | A498 > 100 µM | HOP-92 23.9 µM

O=C(O)c1nc2nc(Cl)c(Cl)nc2[nH]1
inactive: SR > 100 µM | DU-145 > 100 µM | U-251 > 100 µM | OVCAR-4 > 100 µM | SF-539 > 100 µM | RXF 393 > 100 µM | UACC-257 > 100 µM | SK-MEL-2 > 100 µM | SK-MEL-28 > 100 µM | SW-620 > 100 µM | IGROV-1 > 100 µM | HCT-116 > 100 µM | OVCAR-8 > 100 µM | SNB-19 > 100 µM | SNB-75 > 100 µM | HOP-62 > 100 µM | T47D > 100 µM | A498 > 100 µM | HOP-92 > 100 µM

CCOC(=O)c1c(-c2cccc3ccccc23)c(C#N)c(=S)n(C2OC(COC(C)=O)C(OC(C)=O)C(OC(C)=O)C2OC(C)=O)c1C (stereo not drawn)
inactive: SR > 100 µM | DU-145 > 100 µM | U-251 > 100 µM | OVCAR-4 > 100 µM | SF-539 > 100 µM | RXF 393 > 100 µM | UACC-257 > 100 µM | SK-MEL-2 64.1 µM | SK-MEL-28 > 100 µM | IGROV-1 > 100 µM | HCT-116 > 100 µM | UO-31 1.32 µM | OVCAR-8 > 100 µM | SNB-19 > 100 µM | SNB-75 13.7 µM | HOP-62 > 100 µM | T47D > 100 µM | A498 > 100 µM | HOP-92 > 100 µM

Cc1ccc(NC(c2ccccc2)P(=O)(c2ccccc2)c2ccccc2)cc1 (stereo not drawn)
inactive: SR 60.3 µM | DU-145 > 100 µM | U-251 > 100 µM | OVCAR-4 > 100 µM | SF-539 > 100 µM | RXF 393 47.1 µM | UACC-257 > 100 µM | SK-MEL-2 39.6 µM | SK-MEL-28 > 100 µM | SW-620 > 100 µM | IGROV-1 > 100 µM | HCT-116 > 100 µM | UO-31 > 100 µM | OVCAR-8 > 100 µM | SNB-19 53.7 µM | SNB-75 13.7 µM | HOP-62 95.5 µM | T47D > 100 µM | A498 > 100 µM | HOP-92 27.2 µM

O=S(=O)(O)c1ccc2c(/N=N/c3c(O)ccc4ccccc34)cccc2c1
inactive: SR > 100 µM | DU-145 > 100 µM | U-251 > 100 µM | OVCAR-4 > 100 µM | SF-539 > 100 µM | RXF 393 > 100 µM | UACC-257 > 100 µM | SK-MEL-2 > 100 µM | SK-MEL-28 > 100 µM | SW-620 > 100 µM | IGROV-1 65.8 µM | HCT-116 > 100 µM | UO-31 > 100 µM | OVCAR-8 > 100 µM | SNB-19 > 100 µM | SNB-75 > 100 µM | HOP-62 > 100 µM | T47D > 100 µM | A498 > 100 µM | HOP-92 > 100 µM

CC(C)O/N=C/c1cc(NC(=S)OC(C)C)ccc1Cl
inactive: SR 16.1 µM | DU-145 > 65.5 µM | U-251 32.2 µM | OVCAR-4 31.7 µM | SF-539 24.8 µM | RXF 393 20.6 µM | UACC-257 > 100 µM | SK-MEL-2 26 µM | SK-MEL-28 > 62.2 µM | SW-620 45.2 µM | IGROV-1 28.2 µM | HCT-116 23.3 µM | UO-31 21.7 µM | OVCAR-8 36.9 µM | SNB-19 > 54.8 µM | SNB-75 18.5 µM | HOP-62 37.8 µM | T47D 34.3 µM | A498 44.7 µM | HOP-92 > 44.2 µM

CC(C)(C)c1cc(-c2ccc(-c3cc(C(C)(C)C)c(O)c(C(C)(C)C)c3)cc2)cc(C(C)(C)C)c1O
inactive: SR > 100 µM | DU-145 > 100 µM | U-251 > 100 µM | OVCAR-4 > 100 µM | SF-539 > 100 µM | RXF 393 > 100 µM | UACC-257 > 100 µM | SK-MEL-2 > 100 µM | SK-MEL-28 > 100 µM | SW-620 > 100 µM | IGROV-1 > 100 µM | HCT-116 > 100 µM | UO-31 > 100 µM | OVCAR-8 > 100 µM | SNB-19 > 100 µM | SNB-75 > 100 µM | HOP-62 > 100 µM | T47D > 100 µM | A498 > 100 µM | HOP-92 > 100 µM
